Structures are written as SMILES. In brackets after ≈: the same amount, converted by molar mass.

A short description of data set [1]: Metabolic stability in human liver microsome assessed as hepatic clearance. The conditions noted are these: liver microsomes. The class given is ADME. In general terms: Liver microsomes are a subcellular fraction often used to study metabolism.
Data set [2] in a line: Lipophilicity, log D of the compound at pH 7.4. The class given is physicochemical. Conditions: buffer.
Data set [3] in a line: Kinetic solubility of compound. The class given is physicochemical. The conditions noted are these: read-out: Kinetic_solubility.
The nature of data set [4]: Half life in rat at 1 mg/kg, iv by LC-MS/MS analysis. It is filed as ADME, organism-based. The conditions noted are these: in vivo.
Data set [5] can be described thus: Clearance in rat at 1 mg/kg, iv by LC-MS/MS analysis. It is filed as ADME, organism-based. The conditions noted are these: in vivo.
Data set [6] is described as follows: Oral bioavailability in rat at 3 mg/kg by LC-MS/MS analysis. It is filed as ADME, organism-based. Conditions: in vivo.
Data set [7] is described as follows: Metabolic stability in rat liver microsome assessed as hepatic clearance. The class given is ADME. The conditions noted are these: liver microsomes.
Data set [8] can be described thus: Volume of distribution at steady state in rat at 1 mg/kg, iv by LC-MS/MS analysis. The class given is ADME, organism-based. Conditions: in vivo, read-out: Vdss.

For the molecule `O=C(NC12CC(c3nnc([C@H]4C[C@@H](OC(F)(F)F)C4)o3)(C1)C2)c1cnc2cc(Cl)ccc2c1`, in data set [1], the CLhep predicted was 11 mL/min/kg.

Turning to `O=C(COc1ccc(Cl)cc1)NC12CCC(NC(=O)COc3ccc(Cl)cc3)(CC1)CC2`, the logD in data set [2] is 4.5. Further, the solubility kinetic in data set [3] is under 1 µM.

As for `O=C(COc1ccc(Cl)cc1)NC12CC(NC(=O)COC3CCC3)(C1)C2`, the logD in data set [2] came to 2.9. Further, in data set [3], the solubility kinetic turned out to be 141 µM (≈ 53.4 µg/mL).

Turning to `O=C(COCC1CCC1)NC12CC(NC(=O)COc3ccc(Cl)cc3)(C1)C2`, the logD in data set [2] turned out to be 3.6. The solubility kinetic in data set [3] came to 19 µM (≈ 7.46 µg/mL).

Turning to `O=C(COc1ccc(Cl)cc1)NC12CC(NC(=O)COc3ccc(Cl)cc3)(C1)C2`, the log distribution coefficient (logD) in data set [2] came out at 2.9. In data set [3], the solubility kinetic is 2 µM (≈ 0.871 µg/mL).

With `O=C(COc1ccc(Cl)c(F)c1)NC12CC(c3cnn([C@H]4C[C@@H](OC(F)(F)F)C4)n3)(C1)C2`, in data set [1], the CLhep predicted is under 6 mL/min/kg.

`O=C(COc1ccc(Cl)cc1)NC12CCC(NC(=O)COc3ccc(Cl)cc3)(CC1)C2`: the logD in data set [2] amounted to 4.6. Further, the solubility kinetic in data set [3] is under 1 µM.

`O=C(COc1ccc(Cl)c(F)c1)NC12CC(N3C[C@H]([C@H]4C[C@@H](OC(F)(F)F)C4)OC3=O)(C1)C2`: in data set [1], the CLhep predicted was 15 mL/min/kg.

Consider `O=C(NC12CC(c3nnc([C@H]4C[C@@H](OC(F)(F)F)C4)o3)(C1)C2)C1CCc2cc(Cl)ccc2O1` (stereo partly drawn), for which the CLhep predicted in data set [1] was 12 mL/min/kg.

In data set [2], `O=C(COCC1CC1)NC12CC(NC(=O)COc3ccc(Cl)cc3)(C1)C2` had a logD of 2.9. Also, the solubility kinetic in data set [3] is 184 µM (≈ 69.7 µg/mL).

As for `O=C(COc1ccc(Cl)c(F)c1)NC12CC(NC(=O)CO[C@H]3C[C@H](C(F)(F)F)C3)(C1)C2`, in data set [1], the CLhep predicted was 13 mL/min/kg. Further, the logD in data set [2] is 3.6.

As for `O=C(COc1ccc(Cl)cc1)NC12CC(NC(=O)COC3CC3)(C1)C2`, in data set [2], the logD was determined as 2.6. The solubility kinetic in data set [3] stood at 181 µM (≈ 66 µg/mL).

Turning to `OC(COC1CCC(Cl)C(F)C1)NC12CC(NC(O)CO[C@H]3C[C@@H](C(F)(F)F)C3)(C1)C2` (stereo partly drawn), the CLhep predicted in data set [1] was 13 mL/min/kg. The same molecule returned a logD in data set [2] of 3.1.

Take `O=C(COc1ccc(Cl)cc1)NC1CCN(C(=O)COc2ccc(Cl)cc2)CC1`: in data set [2], the logD was determined as 3.3. In addition, the solubility kinetic in data set [3] was found to be 5 µM (≈ 2.19 µg/mL).

`O=C(COc1ccc(Cl)cc1)N[C@H]1CC[C@H](NC(=O)COc2ccc(Cl)cc2)CC1` yielded a logD in data set [2] of 3.7. Further, the solubility kinetic in data set [3] was under 1 µM.

As to `O=C(NC12CC(c3nnc([C@H]4C[C@@H](OC(F)(F)F)C4)o3)(C1)C2)c1nc2cc(Cl)ccc2o1`, the CLhep predicted in data set [1] is under 6 mL/min/kg.

For the molecule `O=C(COc1ccc(F)cc1)NC12CC(c3nnc([C@H]4C[C@@H](OC(F)(F)F)C4)o3)(C1)C2`, the CLhep predicted in data set [1] is under 6 mL/min/kg.

As to `O=C(COc1ccc(C(F)(F)F)cc1)NC12CC(c3nnc([C@H]4C[C@@H](OC(F)(F)F)C4)o3)(C1)C2`, the half-life in data set [4] was 22.9 h. In data set [5], this molecule yielded a clearance of 0.4 mL/min/kg. Moreover, the bioavailability in data set [6] stood at 39%. Also, the CLhep predicted in data set [1] was under 6 mL/min/kg; in data set [7] it was under 17 mL/min/kg. The Vd in data set [8] stood at 0.26 L/kg.

Regarding `O=C(COc1ccc(Cl)cc1)NC12CC(NC(=O)COC3CCCC3)(C1)C2`, the logD in data set [2] stood at 3.4. Further, the solubility kinetic in data set [3] came to 34 µM (≈ 13.4 µg/mL).

Regarding `O=C(COc1ccc(Cl)cc1)NC12CC(NC(=O)COC3CCOC3)(C1)C2` (stereo not drawn), in data set [2], the logD was determined as 1.8. Further, the solubility kinetic in data set [3] worked out at 194 µM (≈ 76.6 µg/mL).

As usually defined, the logD is lipophilicity at a set pH, counting ionised and neutral species. A low value points to lower lipophilicity. By half-life is commonly meant the time in which the quantity being followed falls by half. Lower therefore signals fast loss. Broadly, the clearance is the volume of plasma or blood freed of the substance per unit of time. A low value points to inefficient removal. The bioavailability is the share of a dose that reaches the circulation, judged against a reference dose that is usually intravenous. Higher therefore signals much systemic uptake.
